# Assay results from publication PMC8280721, “Structural and Functional Analysis of a Multimodular Hyperthermostable Xylanase-Glucuronoyl Esterase from Caldicellulosiruptor kristjansonii” (Biochemistry, 2021).
# Key:
# Type in all cases: binding
# [1] = target: T1, CkGE15A (GE15A, glucuronoyl esterase domain of CkXyn10C-GE15A) (Caldicellulosiruptor acetigenus, UniProt E4S6E9); test: DSF (Tycho NT.[…]); conditions: 10000 µM; 0.5 mg/mL protein, 50 mM MOPS pH 7.2; second inflection point; no-ligand control Ti2 81.3 ± 0.37 °C
# T1 construct: gene Calkr_2245; isolated CE15 domain (entire GE domain Thr1341-Arg1685 seen in structure); E. coli BL21(DE3), pET28a-TEVc; full-length protein 2159 residues
# [2] = target: T2, CBM9.3 (CkCBM9.3, third CBM9 domain of CkXyn10C-GE15A) (Caldicellulosiruptor acetigenus, UniProt E4S6E9); test: X-ray crystallography (soak […], […] min); conditions: crystal at pH 4.2; aromatic clamp Tyr89/Trp191
# T2 construct: gene Calkr_2245; isolated CBM9.3 domain (Lys1072-Leu1252) plus C-terminal linker Lys1253-Pro1265; N-terminal His6 tag and TEV site (not seen in density); E. coli BL21(DE3), pET28a-TEVc; full-length protein 2159 residues
# [3] = target: T2, CBM9.3 (CkCBM9.3, third CBM9 domain of CkXyn10C-GE15A); test: DSF (Tycho NT.[…]); conditions: 100000 µM; 0.5 mg/mL protein, 50 mM Tris pH 8, 100 mM NaCl; 100 mM ligand; no-ligand control Ti 61.0 ± 0.88 °C
# T1 sequence (E4S6E9 entry or part of it): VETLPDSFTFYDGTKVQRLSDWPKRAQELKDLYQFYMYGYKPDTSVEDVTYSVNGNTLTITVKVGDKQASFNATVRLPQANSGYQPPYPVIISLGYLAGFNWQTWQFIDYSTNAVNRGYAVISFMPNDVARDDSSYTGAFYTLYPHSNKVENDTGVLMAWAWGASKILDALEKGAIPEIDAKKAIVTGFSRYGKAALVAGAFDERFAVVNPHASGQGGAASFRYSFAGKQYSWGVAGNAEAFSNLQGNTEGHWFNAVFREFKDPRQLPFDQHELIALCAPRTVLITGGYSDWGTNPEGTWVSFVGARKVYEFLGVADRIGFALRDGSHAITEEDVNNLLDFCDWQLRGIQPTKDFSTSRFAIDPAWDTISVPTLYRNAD
# T2 sequence (E4S6E9 entry or part of it): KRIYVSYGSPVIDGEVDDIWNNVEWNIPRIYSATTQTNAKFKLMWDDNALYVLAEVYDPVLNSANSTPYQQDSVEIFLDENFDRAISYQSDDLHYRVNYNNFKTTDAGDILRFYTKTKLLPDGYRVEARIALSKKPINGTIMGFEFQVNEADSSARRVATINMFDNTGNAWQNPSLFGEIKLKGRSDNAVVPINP
Compound,Ti2 (°C) ± SD [1] [°C],"X-ray crystallography (soak 500 mM, 5 min) [2]",Ti (°C) ± SD [3] [°C]
O=C(OCc1ccccc1)[C@H]1OC(O)[C@H](O)[C@@H](O)[C@@H]1O (stereo partly shown) [benzylglucuronate],79.3 ± 0.49,,
OC[C@H]1OC(O)[C@H](O)[C@@H](O)[C@@H]1O (stereo partly shown) [glucose],,we obtained structures with bound glucose and cellobiose and also with cellotriose,66.7 ± 0.195
aldopentauronic acid,79.2 ± 0.49,,
